Measured values taken from paper PMC6906472, “Purification and biological activity of natural variants synthesized by tridecaptin M gene cluster and in vitro drug-kinetics of this antibiotic class” (Scientific Reports, 2019).
≈ marks a conversion by molar mass, not a printed value. Read-outs that look alike come from different tables or passages of the source. Square brackets hold non-standard residues; d marks the D form. Peptide text beside a SMILES is read from it. * marks the point of attachment. d(aIle) = CC[C@H](C)[C@@H](N)C(=O)O; X1 = CC[C@H](C)CCCCC(=O)*; dDab = NCC[C@@H](N)C(=O)O; βNA = c1ccc2cc(N*)ccc2c1; Dab = NCC[C@H](N)C(=O)O

Assays:
K. pneumoniae GMCH 13 = assay: microbe, parasite or virus in culture
Protocol: (§1) Acinetobacter baumannii ATCC 19606, Pseudomonas aeruginosa ATCC 27853, K. pneumoniae ATCC 700603, K. pneumoniae P3R, K. pneumoniae GMCH 13 and K. pneumoniae GMCH 15 were grown in CA-MHB and adjusted to ~4 × 10^5 CFU/ml. 100 µl of fresh CA-MHB containing carbonyl cyanide m-chlorophenyl hydrazine (CCCP) or phenylalanine-arginine beta-naphthylamide (PAβN) (at a final concentration of their 1/4th of MIC or 1/8th of MIC) was added to the wells of a 96-well flat bottom plate. Tridecaptin M was diluted in a 2-fold manner. 100 µl of culture was added and the plates were incubated for 16 to 18 h at 37 °C and observed for MICs. The fold modulation in MICs of tridecaptin M was calculated by comparing the results in the presence or absence of CCCP and PAβN.

[1] = tested on: K. pneumoniae P3R (Tri-M Resistant); assay: microbe, parasite or virus in culture
Protocol: as §1

K. pneumoniae GMCH 15 = assay: microbe, parasite or virus in culture
Protocol: as §1

P. aeruginosa ATCC 27853 [2] = assay: microbe, parasite or virus in culture
Protocol: as §1

A. baumannii ATCC 19606 [3] = assay: microbe, parasite or virus in culture
Protocol: as §1

[4] = tested on: K. pneumoniae ATCC 700603; assay: Synergy assay with efflux pump inhibitors; format: cell-based
Protocol: as §1

[5] = tested on: K. pneumoniae AH-3 (Col-R)
Protocol: (§2) MICs for all the compounds were determined by broth microdilution assay, according to CLSI guidelines[16] as described previously. Haemolysis experiments were performed with fresh rabbit RBCs[11]. All the compounds were tested at a concentration of 128 µg/ml. To obtain rabbit blood, the experiments and the protocols were in accordance with the ethical standards of the Institutional Animal Ethics Committee (IAEC) of the Institute of Microbial Technology approved (Approval no. IAEC/17/11) by Committee for the Purpose of Control And Supervision of Experiments on Animals (CPCSEA, Government of India).

E. coli CF-23 (mcr-1) = tested on: E. coli CF-23 (mcr-1)
Protocol: as §2

[6] = tested on: Serratia marcescens MTCC 97
Protocol: as §2

K. pneumoniae P3R (M1-R) = conditions: broth microdilution, CLSI guidelines; M1-resistant mutant of ATCC 700603
Protocol: as §2

[7] = tested on: K. pneumoniae ATCC 700603
Protocol: as §2

[8] = tested on: Proteus mirabilis MTCC 1429
Protocol: as §2

P. aeruginosa ATCC 27853 [9] = tested on: P. aeruginosa ATCC 27853
Protocol: as §2

A. baumannii ATCC 19606 [10] = tested on: A. baumannii ATCC 19606
Protocol: as §2

[11] = tested on: K. pneumoniae AH-16 (Col-R)
Protocol: as §2

[12] = tested on: efflux in A. baumannii ATCC 19606; conditions: CCCP 4 mg/L, Nile Red 5 μM, energization with 50 mM glucose, fluorescence 552/636 nm
Protocol: To assess the effect of CCCP on efflux in A. baumannii ATCC 19606, the Nile Red efflux assay was used[17]. The overnight grown culture was centrifuged at 3000 g for 10 min at room temperature. The pellet was resuspended in 20 mM potassium phosphate buffer (pH 7.0) containing 1 mM MgCl2 and washed twice with the same buffer. The cells were adjusted to an OD660 of 1.0 and the aliquots were transferred to a glass tubes containing CCCP at a final concentration of 4 mg/L. After 15 min, Nile Red was added to a final concentration of 5 μM, and the cell suspension was incubated in a shaker (140 rpm, 37 °C) for 3 h. The cells were kept at room temperature for 60 min and centrifuged for 5 min at 3000 g. The supernatant was discarded and the cell pellet was resuspended in assay buffer. Next, Nile Red efflux was immediately triggered by rapid energization with 50 mM glucose and the fluorescence was recorded at excitation and emission wavelength 552 nm and 636 nm, respectively, over a period of 5 min.

[13] = broth microdilution, CLSI guidelines
[14] = ~4 × 10^5 CFU/ml, CA-MHB, 16 to 18 h, 37 °C

| Compound | Peptide MIC [5] [µg/mL] | Peptide MIC (E. coli CF-23 (mcr-1)) [µg/mL] | Peptide MIC [6] [µg/mL] | Peptide MIC (K. pneumoniae P3R (M1-R)) [µg/mL] | Peptide MIC [7] [µg/mL] | Peptide MIC [8] [µg/mL] | Peptide MIC (P. aeruginosa ATCC 27853 [9]; ATCC 27853) [µg/mL] | Peptide MIC (A. baumannii ATCC 19606 [10]; ATCC 19606) [µg/mL] | Peptide MIC [11] [µg/mL] | further results |
| --- | --- | --- | --- | --- | --- | --- | --- | --- | --- | --- |
| NC(N)=NCCC[C@H](NC(=O)[C@@H](N)Cc1ccccc1)C(=O)Nc1ccc2ccccc2c1 [PAβN, phenylalanine-arginine beta-naphthylamide, reference compound] (H-Phe-Arg-βNA) |  |  |  |  |  |  |  |  |  | MIC (K. pneumoniae GMCH 13; Klebsiella pneumoniae, GMCH13, read-out: Intrinsic Activity, MIC): 256 µg/mL (≈ 573 µM); MIC ([1]; Klebsiella pneumoniae, read-out: Intrinsic Activity, MIC): 256 µg/mL (≈ 573 µM); MIC (K. pneumoniae GMCH 15; Klebsiella pneumoniae, GMCH15, read-out: Intrinsic Activity, MIC): 256 µg/mL (≈ 573 µM); MIC (P. aeruginosa ATCC 27853 [2]; Pseudomonas aeruginosa, ATCC27853, read-out: Intrinsic Activity, MIC): 64 µg/mL (≈ 143 µM); MIC (A. baumannii ATCC 19606 [3]; Acinetobacter baumannii, ATCC19606, read-out: Intrinsic Activity, MIC): 64 µg/mL (≈ 143 µM); MIC ([4]; Klebsiella pneumoniae, ATCC700603, read-out: Intrinsic Activity, MIC): 256 µg/mL |
| CC[C@H](C)CCCCC(=O)NCC(=O)N[C@H](CCN)C(=O)NCC(=O)N[C@H](CO)C(=O)N[C@H](Cc1c[nH]c2ccccc12)C(=O)N[C@@H](CO)C(=O)N[C@@H](CCN)C(=O)N[C@H](CCN)C(=O)N[C@H](C(=O)N[C@@H](CCC(=O)O)C(=O)N[C@H](C(=O)N[C@@H](C(=O)N[C@@H](CO)C(=O)O)C(C)C)C(C)C)[C@@H](C)CC [M2] (X1-G[dDab]G[dS][dW]S[Dab][dDab]IEV[dV]S-OH) | 8 | 16 | >16 | >32 | 8 | >16 | >32 | >32 | >16 |  |
| CC[C@H](C)CCCCC(=O)NCC(=O)N[C@H](CCN)C(=O)NCC(=O)N[C@H](CO)C(=O)N[C@H](Cc1ccccc1)C(=O)N[C@@H](CO)C(=O)N[C@@H](CCN)C(=O)N[C@H](CCN)C(=O)N[C@H](C(=O)N[C@@H](CCC(=O)O)C(=O)N[C@H](C(=O)N[C@@H](C(=O)N[C@@H](CO)C(=O)O)C(C)C)[C@@H](C)CC)[C@@H](C)CC [M5] (X1-G[dDab]G[dS][dF]S[Dab][dDab]IEI[dV]S-OH) | 16 | 16 | 8 | 16 | 16 | 16 | >32 | >32 | 16 |  |
| CC[C@H](C)CCCCC(=O)NCC(=O)N[C@H](CCN)C(=O)NCC(=O)N[C@H](CO)C(=O)N[C@H](Cc1ccccc1)C(=O)N[C@@H](CO)C(=O)N[C@@H](CCN)C(=O)N[C@H](CCN)C(=O)N[C@H](C(=O)N[C@@H](CCC(=O)O)C(=O)N[C@H](C(=O)N[C@@H](C(=O)N[C@@H](CO)C(=O)O)[C@@H](C)CC)[C@@H](C)CC)[C@@H](C)CC [M8] (X1-G[dDab]G[dS][dF]S[Dab][dDab]IEI[d(aIle)]S-OH) | 8 | 4 | 16 | 128 | 4 | >16 |  |  | 4 | Peptide MIC (P. aeruginosa ATCC 27853 [9]; [13]): >128 µg/mL; Peptide MIC (A. baumannii ATCC 19606 [10]; [13]): 128 µg/mL |
| CC[C@H](C)CCCCC(=O)NCC(=O)N[C@H](CCN)C(=O)NCC(=O)N[C@H](CO)C(=O)N[C@H](Cc1c[nH]c2ccccc12)C(=O)N[C@@H](CO)C(=O)N[C@@H](CCN)C(=O)N[C@H](CCN)C(=O)N[C@H](C(=O)N[C@@H](CCC(=O)O)C(=O)N[C@H](C(=O)N[C@@H](C(=O)N[C@@H](CO)C(=O)O)[C@@H](C)CC)[C@@H](C)CC)C(C)C [M7] (X1-G[dDab]G[dS][dW]S[Dab][dDab]VEI[d(aIle)]S-OH) | 8 | 16 | 8 | 16 | 8 | >16 | >32 | >32 | 8 |  |
| carbonyl cyanide m-chlorophenyl hydrazine [CCCP, reference compound] |  |  |  |  |  |  |  |  |  | Intrinsic Activity; MIC (K. pneumoniae GMCH 13; [14]): 32 µg/mL; Intrinsic Activity; MIC [1, 14]: 128 µg/mL; Intrinsic Activity; MIC (K. pneumoniae GMCH 15; [14]): 64 µg/mL; Intrinsic Activity; MIC (P. aeruginosa ATCC 27853 [2]; [14]): 64 µg/mL; Intrinsic Activity; MIC (A. baumannii ATCC 19606 [3]; [14]): 64 µg/mL; effect on efflux of Nile red dye [12]: inhibited the efflux of Nile red dye; Intrinsic Activity; MIC [4, 14]: 128 µg/mL |
| CC[C@H](C)CCCCC(=O)NCC(=O)N[C@H](CCN)C(=O)NCC(=O)N[C@H](CO)C(=O)N[C@H](Cc1c[nH]c2ccccc12)C(=O)N[C@@H](CO)C(=O)N[C@@H](CCN)C(=O)N[C@H](CCN)C(=O)N[C@H](C(=O)N[C@@H](CCC(=O)O)C(=O)N[C@H](C(=O)N[C@@H](C(=O)N[C@@H](CO)C(=O)O)C(C)C)[C@@H](C)CC)[C@@H](C)CC [M6] (X1-G[dDab]G[dS][dW]S[Dab][dDab]IEI[dV]S-OH) | 4 | 4 | 16 | 16 | 4 | >16 | >32 | >32 | 2 |  |
